“Also recorded” adds a separate entry of the source. *1 amine or outer side, *2 acyl side, *3 side chain or, on linkers, in order; H or OH if unused. [ ]: non-standard residue; d: D form. PEG (Jeffamine) = not defined here; Suc = O=C(CCC(=O)[*:2])[*:1]

Data on two substances can be found in patent US20060211606A1, “Peptides” (priority 2005, published 2006).

Series [1] has as its system normal craniofacial (masseter) primary cultures. Kind of series: Desmin positive cell proliferation, normal craniofacial (masseter) primary cultures. The class given is cell-based, human. The conditions noted are these: for desmin positive cells as percentage of total cells: peptide alone, 10 ng/ml, serum-free defined media, mean±s.d. The text has this:
(§1) Human primary muscle cell cultures were isolated as previously described [Lewis et al., 2000; Sinanan et al., 2004]. Briefly, following informed consent, craniofacial (masseter) muscle biopsies were obtained from healthy adult and CMD patients during elective surgery at the Eastman and Middlesex Hospitals, London, UK. Human lower limb (vastus lateralis) muscle samples were obtained from consenting, adult healthy, FSHD and ALS patients by needle biopsy under local anaesthesia at the Royal Free Hospital, London, UK. Biopsies were pooled from several patients with the same disorder to obtain sufficient cell numbers in the primary cultures. These were washed with antibiotic (penicillin, 100 U/ml; streptomycin, 100 μg/ml; fungizone, 2.5 μg/ml; Invitrogen) supplemented DMEM (high glucose; Invitrogen), scissor-minced and tissue fragments plated into 0.2% gelatin-coated (Sigma-Aldrich) T150 cm^2 culture flasks (Helena Biosciences). Explant cultures were incubated in serum-containing Growth Media (sGM), composed of DMEM, 20% FCS (PAA Laboratories), penicillin (100 U/ml) and streptomycin ([…]) (Invitrogen), and maintained at 37° C. in humidified 95% air with 5% CO2. The first wave of migration of mononuclear cells from the explant was designated the […]-wave and this population was used throughout this study. Migratory human muscle cell were enzymatically harvested using trypsin-EDTA (Invitrogen) and subcultured in sGM until 70-80% confluency. Passage number x (Px), was defined as the xth sequential harvest of subconfluent cells. All experiments were performed using P3-5 cohorts. The expanded cells were then stored under cryogenic conditions until they were used in the experiments described below. At least 6 runs were made for each of the treatments used for each diseased muscle culture as well as for the two types of healthy muscle.
(§2) Assessment of the number of myogenic precursors was performed as described previously (Sinanan et al., 2004). Cells were re-plated on gelatin-coated (0.2%) 13 mm coverslips at an initial density of 4.5×10^3 cells cm^−2. […]
(§3) At the appropriate time-points, cells were fixed with methanol for 10 min (−20° C.), followed by detergent permeabilization with 0.5% Triton-X100 for 10-15 min. […] Cell-associated fluorescence and morphology, were visualized by epi-fluorescence and Leica Modulation Contrast (LMC) microscopy respectively, using an inverted Leica DMIRB microscope equipped with Leica FW4000 image processing software. For the proliferation assay, all blue and green fluorescent positive cells were counted in a field. […]

The test system of series [2] is primary human muscle cell cultures. Put plainly: Creatine phosphokinase (CPK) assay of myogenic differentiation / myotube formation. It counts as cell-based. The conditions noted are these: for effect on myoblast differentiation and myotube formation: differentiation medium, 48 hours, peptide alone (IGF-I 10 ng/ml). On the procedure: This assay was performed using previously published protocols [Auluck et al., 2005]. Measurement of CPK allows for the quantitative comparison of myogenesis [Goto et al., 1999], as it is a marker of myotube formation. The enzyme CPK catalyzes the reversible phosphorylation of adenosine-5-diphosphate (ADP) to form adenosine-5-triphosphate (ATP) and free creatine. The reaction may be followed in either direction by measuring the formation of inorganic phosphorus, an end-product of the reaction which is proportional to CPK activity. This was measured using the calorimetric method based on the generation of inorganic phosphate [Fiske and Subbarow, 1925] procedure. This was then expressed in terms of the protein content of the culture.
Previously expanded primary human muscle cell cultures were re-plated at 10×10^4 cells/well in 0.2% gelatin coated 96 well plates. […] (Sigma-Aldrich IGF-I ER2). After 48 hours, cells were washed twice with ice cold PBS and then stored frozen in 0.5 mM glycine buffer (pH 6.75) at −70° C. Fixed cells were lysed by rapid thawing and CPK assay kit used according to manufacturers instructions (Sigma-Aldrich). The protein concentration of each sample was determined against an albumin standard curve using the Pierce Micro BCA Kit (PerBio Science, UK Ltd., Northumberland, UK).

Series [3] deals with primary cultures derived from congenital muscular dystrophy (CMD). Kind of series: Desmin positive cell proliferation, primary cultures from congenital muscular dystrophy (CMD). The conditions noted are these: for desmin positive cells as percentage of total cells: peptide alone, 10 ng/ml, mean±s.d. It counts as cell-based, human.
Description: as §1, §2, §3

The subject of the next series is muscle cells from FSHD. Kind of series: Desmin positive cell proliferation, muscle cells from FSHD. The class given is cell-based, human. The conditions noted are these: for desmin positive cells as percentage of total cells: peptide alone, 10 ng/ml, mean±s.d.
Description: as §1, with “The expanded cells were then stored under cryogenic conditions until they were used in the experiments described below. At least 6 runs were made for each of the treatments used for each diseased muscle culture as well as for the two types of healthy muscle.” left out
as §3

The test system of series [4] is muscle cells from amyotrophic lateral sclerosis (ALS). Put plainly: Desmin positive cell proliferation, muscle cells from amyotrophic lateral sclerosis (ALS). It counts as cell-based, human. The note with it: for desmin positive cells as percentage of total cells: peptide alone, 10 ng/ml, mean±s.d.
Description: as §1, §2, §3

For another series, the system named is infarcted ovine heart. Kind of series: Ovine myocardial infarction, intracoronary injection, ejection fraction by echocardiography. The class given is in vivo. The note with it: ovine MI; intracoronary injection 15 minutes after MI; ejection fraction day 6 vs day 1. The text has this: A myocardial infarction (MI) was induced in ovine hearts by catheterising a marginal branch of the circumflex coronary artery and injecting a small bolus of microspheres to induce localised ischemia. […] As a control, mature liver-type IGF-I was used.

Series [5] deals with tibialis anterior muscle of non-dystrophic mice. Kind of series: Intramuscular injection into tibialis anterior of non-dystrophic mice, muscle strength. It counts as in vivo. The note with it: i.m. twice weekly 25 μl containing 17 μg, within a few weeks.
Series [6] is described as follows: Stability to proteolytic cleavage in fresh human plasma, Western blotting. The note with it: fresh human plasma plus PBS, 37° C., 24 hours. (In general: In western blotting, separated proteins are transferred to a membrane and probed.)
Description: Western blotting was then used to assess the survival of each peptide over those time intervals: A=0 minutes; B=30 minutes; C=2 hours; D=24 hours.
Stability may be assessed in terms of half-life in human plasma or by any other suitable technique. In particular, stability can be measured by assessing peptides' susceptibility to proteolytic cleavage in fresh human plasma according to the technique of Example 5.1 below, in which the plasma was stored until used at −70° C., 10 μg of peptide was added to 2 ml of plasma, plus 7 ml of PBS and the mixture was incubated at 37° C. for different time intervals. Western blotting was then used to detect each peptide over those time intervals.
The plasma was stored until used at −70° C. 10 μg of peptide were added to 2 ml of plasma, plus 7 ml of PBS. This mixture was incubated at 37° C. for different time intervals.
Like biological activity, stability was scored on a scale of 0 to 3.
Stability was determined as the amount of the peptide that remained intact and bound to the specific antibody in the following way:
The mark [7] stands for this setting: stabilised peptide in combination with IGF-I.

As to “IGF-I: IGF-I receptor binding domain encoded by Exons 3 and 4, common to all splice variants, approximately 70 amino acids [reference compound]”, the “desmin positive cells as percentage of total cells” value is reported as 58.4±4.2% in series [1] (normal craniofacial), 13.2±1.7% in series [3], 14.1±1.6% with muscle cells from FSHD and 4.7±1.4% in series [4]. Also, the “effect on myoblast differentiation and myotube formation” value in series [2] is given as “apparently stimulates myotube formation”; in series [2] (listed as mature IGF-I), “enhanced differentiation”. Further, the “effect on percentage of viable myocardium and ejection fraction” value in the series with infarcted ovine heart is on record as “much smaller effect”.

For the substance “stabilised peptide: SEQ ID NO: 15 with D-Arginine at positions 14 and 15, N-terminus attached to PEG (Jeffamine) via succinic acid bridge, amidated at C-terminus ({PEG (Jeffamine)-Suc}-YQPPSTNKNTKSQ[dR][dR]KGSTFEEHK-NH2; reading uncertain)”, the “desmin positive cells as percentage of total cells” value was found to be 68.8±3.9% in series [1] (normal craniofacial), 17.5±1.6% in series [3], 20.4±2.1% in the series with muscle cells from FSHD and 7.2±0.8% in series [4]. In addition, the “desmin positive cells as percentage of total cells, IGF-I added” value in series [1] (normal craniofacial, stabilised peptide in combination with IGF-I (10 ng/ml each)) stood at 59.5±4.2%; in series [3] (setting [7]) it was 13.1±1.2%; in the series on muscle cells from FSHD (setting [7]) it was 14.5±1.4%; in series [4] (setting [7]), 5.3±1.0%. Moreover, the “desmin positive cells as percentage of total cells, plus anti-IGF-I receptor antibody Ab-1” value was 71.1±6.2% in series [1] (normal muscle, stabilised peptide plus Ab-1); 16.7±1.8% in series [3] (stabilised peptide plus Ab-1); 6.5±0.8% in series [4] (stabilised peptide plus Ab-1). The “effect on myoblast differentiation and myotube formation” value in series [2] was “no effect on myotube formation; also recorded: did not facilitate primary myoblast differentiation and myotube formation”. In addition, the “effect on differentiation in the presence of 10 ng/ml IGF-I” value in series [2] (stabilised peptide with 10 ng/ml IGF-I, dose-dependent) is on record as “prevented differentiation to the myoblast fusion competent stage”. The “increase in muscle strength” value in series [5] is “more than 25%”. For the same substance, in series [6], the “peptide detected by Western blotting after 24 hours” value is recorded as “detected in abundance”. Besides, the “effect on percentage of viable myocardium and ejection fraction” value with infarcted ovine heart was “markedly increase the percentage of viable myocardium and the ejection fraction”.
